Several values for one entry are separate records, joined by “and”; a condition that tells them apart may be missing. Equal values may be shown once. Toxic doses and inconclusive results are not listed.
System: P388 leukemia ip, CD2F1 mice, survival T/C
Test: NCI In Vivo Anticancer Drug Screen. Data for tumor model P388 Leukemia (intraperitoneal) in CD2F1 (CDF1) mice
Details: endpoint: median survival time, higher = longer survival
In short: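 Mice carrying the transplanted tumor received test compound or vehicle. Survival was recorded in each group, and the value is the treated-group measurement divided by that of the vehicle-treated control group.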

[1] = dose: 50.0 mg/kg/injection, schedule: Q01DX005 (ip), vehicle: saline with Tween-80
[2] = dose: 100.0 mg/kg/injection, schedule: Q01DX005 (ip), vehicle: saline with Tween-80
[3] = dose: 200.0 mg/kg/injection, schedule: Q01DX005 (ip), vehicle: saline with Tween-80
[4] = dose: 50.0 mg/kg/injection, schedule: Q01DX009 (ip), vehicle: Klucel (hydroxypropylcellulose) (HPC)
[5] = dose: 100.0 mg/kg/injection, schedule: Q01DX009 (ip), vehicle: Klucel (hydroxypropylcellulose) (HPC)
[6] = dose: 25.0 mg/kg/injection, schedule: Q04DX002 (ip), vehicle: saline with Tween-80
[7] = dose: 50.0 mg/kg/injection, schedule: Q04DX002 (ip), vehicle: saline with Tween-80
[8] = dose: 50.0 mg/kg/injection, schedule: Q01DX005 (ip), vehicle: Klucel (hydroxypropylcellulose) (HPC)
[9] = dose: 100.0 mg/kg/injection, schedule: Q01DX005 (ip), vehicle: Klucel (hydroxypropylcellulose) (HPC)
[10] = dose: 50.0 mg/kg/injection, schedule: Q01DX009 (ip), vehicle: saline with Tween-80
[11] = dose: 100.0 mg/kg/injection, schedule: Q01DX009 (ip), vehicle: saline with Tween-80
[12] = dose: 200.0 mg/kg/injection, schedule: Q01DX009 (ip), vehicle: saline with Tween-80

With `Cc1oc2ccccc2c(=O)c1CO` the T/C (dose: 60.0 mg/kg/injection, schedule: Q01DX005 (ip), vehicle: saline with Tween-80) was 104 % of control, the T/C (dose: 120.0 mg/kg/injection, schedule: Q01DX005 (ip), vehicle: saline with Tween-80) was 100 % of control and the T/C (dose: 240.0 mg/kg/injection, schedule: Q01DX005 (ip), vehicle: saline with Tween-80) was 100 % of control.
For `C=Cc1ccccc1NC(C(=O)O)c1ccccc1` (centres undefined), the T/C [1] was 107 % of control, the T/C [2] was 106 % of control and the T/C [3] was 104 % of control.
For `CC(=O)CC(=O)C(F)(F)F.CC(=O)CC(=O)C(F)(F)F.CC(=O)CC(=O)C(F)(F)F.[Sm]`, the T/C [4] was 96 % of control, the T/C [5] was 94 % of control and the T/C (dose: 200.0 mg/kg/injection, schedule: Q01DX009 (ip), vehicle: Klucel (hydroxypropylcellulose) (HPC)) was 93 % of control. The T/C (dose: 400.0 mg/kg/injection, schedule: Q01DX009 (ip), vehicle: Klucel (hydroxypropylcellulose) (HPC)) was 94 % of control.
`CC(C)=CCc1c(OC(=O)c2c(C)cc(O)cc2O)cc(CO)c(CO)c1O` was tested, and the T/C (dose: 6.25 mg/kg/injection, schedule: Q01DX009 (ip), vehicle: Klucel (hydroxypropylcellulose) (HPC)) was 101 % of control, the T/C (dose: 12.5 mg/kg/injection, schedule: Q01DX009 (ip), vehicle: Klucel (hydroxypropylcellulose) (HPC)) was 100 % of control and 101 % of control and the T/C (dose: 25.0 mg/kg/injection, schedule: Q01DX009 (ip), vehicle: Klucel (hydroxypropylcellulose) (HPC)) was 101 % of control and 96 % of control. For the same molecule, the T/C [4] was 101 % of control and 104 % of control and the T/C [5] was 101 % of control and 102 % of control.
In the case of `CCOCC#CC(OCC)OCC`, the T/C (dose: 60.0 mg/kg/injection, schedule: Q01DX005 (ip), vehicle: saline) is reported as 101 % of control, the T/C (dose: 120.0 mg/kg/injection, schedule: Q01DX005 (ip), vehicle: saline) is reported as 99 % of control and the T/C (dose: 240.0 mg/kg/injection, schedule: Q01DX005 (ip), vehicle: saline) is reported as 99 % of control.
In the case of `Cn1c(=S)[nH]c2c(c1=O)CCCN2`, the T/C (dose: 100.0 mg/kg/injection, schedule: Q01DX001 (ip), vehicle: Klucel (hydroxypropylcellulose) (HPC)) is reported as 101 % of control, the T/C (dose: 200.0 mg/kg/injection, schedule: Q01DX001 (ip), vehicle: Klucel (hydroxypropylcellulose) (HPC)) is reported as 99 % of control and the T/C (dose: 400.0 mg/kg/injection, schedule: Q01DX001 (ip), vehicle: Klucel (hydroxypropylcellulose) (HPC)) is reported as 95 % of control.
`CCN(CC)CCO[C@H]1CC[C@@]2(C)C(=CC[C@@H]3[C@@H]2CC[C@]2(C)C(=O)CC[C@@H]32)C1` was tested, and the T/C (dose: 5.0 mg/kg/injection, schedule: Q01DX009 (ip), vehicle: saline with Tween-80) was 104 % of control, the T/C (dose: 5.0 mg/kg/injection, schedule: Q04DX003 (ip), vehicle: saline with Tween-80) was 91 % of control and the T/C (dose: 10.0 mg/kg/injection, schedule: Q01DX009 (ip), vehicle: saline with Tween-80) was 91 % of control. For the same molecule, the T/C (dose: 10.0 mg/kg/injection, schedule: Q04DX003 (ip), vehicle: saline with Tween-80) was 91 % of control, the T/C (dose: 20.0 mg/kg/injection, schedule: Q01DX009 (ip), vehicle: saline with Tween-80) was 95 % of control and the T/C (dose: 20.0 mg/kg/injection, schedule: Q04DX003 (ip), vehicle: saline with Tween-80) was 100 % of control.
For `c1cc2cc(-c3ccc4cc(C5=NCCN5)[nH]c4c3)[nH]c2cc1C1=NCCN1`, the T/C (dose: 25.0 mg/kg/injection, schedule: Q04DX003 (ip), vehicle: saline) was 108 % of control, the T/C (dose: 50.0 mg/kg/injection, schedule: Q04DX003 (ip), vehicle: saline) was 116 % of control and the T/C (dose: 200.0 mg/kg/injection, schedule: Q04DX003 (ip), vehicle: saline) was 184 % of control.
`CC(=O)n1c2ccccc2c2c(C)c3c[n+]([O-])ccc3c(C)c21` was tested, and the T/C (dose: 12.5 mg/kg/injection, schedule: Q04DX002 (ip), vehicle: saline with Tween-80) was 100 % of control, the T/C [6] was 110 % of control and the T/C [7] was 122 % of control. For the same molecule, the T/C (dose: 200.0 mg/kg/injection, schedule: Q04DX002 (ip), vehicle: saline with Tween-80) was 93 % of control.
`NC(=S)c1cccc(OCCCOc2ccccc2)c1` was tested, and the T/C [8] was 96 % of control and the T/C [9] was 91 % of control.
In the case of `Cc1ccc(S(=O)(=O)NC(=O)n2ccnc2C)cc1`, the T/C [8] is reported as 97 % of control, the T/C [9] is reported as 100 % of control and the T/C (dose: 200.0 mg/kg/injection, schedule: Q01DX005 (ip), vehicle: Klucel (hydroxypropylcellulose) (HPC)) is reported as 104 % of control.
For `N#CC(Cc1ccccc1Cl)C(=O)O` (centres undefined), the T/C (dose: 12.5 mg/kg/injection, schedule: Q01DX009 (none), vehicle: saline) was 99 % of control, the T/C (dose: 25.0 mg/kg/injection, schedule: Q01DX009 (none), vehicle: saline) was 92 % of control and the T/C (dose: 50.0 mg/kg/injection, schedule: Q01DX009 (none), vehicle: saline) was 90 % of control. For the same molecule, the T/C (dose: 100.0 mg/kg/injection, schedule: Q01DX009 (none), vehicle: saline) was 90 % of control.
In the case of `C[n+]1ccccc1C1(O)CCCC1`, the T/C [10] is reported as 94 % of control, the T/C [11] is reported as 100 % of control and the T/C [12] is reported as 100 % of control.
`Cc1nsnc1CCO` was tested, and the T/C (dose: 100.0 mg/kg/injection, schedule: Q04DX002 (ip), vehicle: saline) was 102 % of control, the T/C (dose: 200.0 mg/kg/injection, schedule: Q04DX002 (ip), vehicle: saline) was 104 % of control and the T/C (dose: 400.0 mg/kg/injection, schedule: Q04DX002 (ip), vehicle: saline) was 99 % of control.
With `O=S1(=O)OCCO1` the T/C (dose: 12.5 mg/kg/injection, schedule: Q01DX005 (ip), vehicle: saline) was 106 % of control and the T/C (dose: 25.0 mg/kg/injection, schedule: Q01DX005 (ip), vehicle: saline) was 108 % of control.
`O=C1CSC(c2cc(O)ccc2O)N1c1nncs1` (centres undefined) was tested, and the T/C [1] was 90 % of control, the T/C [2] was 97 % of control and the T/C [3] was 91 % of control.
`CCC1(C=O)NC(=O)NC1=O` (centres undefined) was tested, and the T/C [1] was 91 % of control, the T/C [2] was 95 % of control and the T/C [3] was 87 % of control.
`CCOc1nnc(-c2ccc(OC)c(OC)c2)o1` was tested, and the T/C (dose: 12.5 mg/kg/injection, schedule: Q01DX009 (ip), vehicle: other) was 90 % of control, the T/C (dose: 100.0 mg/kg/injection, schedule: Q01DX009 (ip), vehicle: other) was 106 % of control and the T/C (dose: 200.0 mg/kg/injection, schedule: Q01DX009 (ip), vehicle: other) was 90 % of control.
With `CCCC(=O)O[C@H]1/C(=C/C(=O)OC)C[C@H]2C[C@H]([C@@H](C)O)OC(=O)C[C@H](O)C[C@@H]3C[C@H](OC(=O)CC(C)C)C(C)(C)[C@](O)(C[C@@H]4C/C(=C\C(=O)OC)C[C@H](/C=C/C(C)(C)[C@]1(O)O2)O4)O3` the T/C (dose: 0.01 mg/kg/injection, schedule: Q01DX009 (ip), vehicle: saline + alcohol) was 111 % of control and the T/C (dose: 0.05 mg/kg/injection, schedule: Q01DX009 (ip), vehicle: saline + alcohol) was 113 % of control.
For `Cn1c(N)c(C(=S)N2CCOCC2)c(=O)n(C)c1=O`, the T/C [6] was 100 % of control, the T/C [7] was 104 % of control and the T/C (dose: 100.0 mg/kg/injection, schedule: Q04DX002 (ip), vehicle: saline with Tween-80) was 104 % of control.
For `CN(C)P(=O)(Oc1occc1C(C)(C)O)N(C)C`, the T/C (dose: 7.5 mg/kg/injection, schedule: Q01DX005 (ip), vehicle: saline) was 100 % of control and the T/C (dose: 15.0 mg/kg/injection, schedule: Q01DX005 (ip), vehicle: saline) was 102 % of control.
`CCCCP(=O)(CCCC)CCCC.CCCCP(=O)(CCCC)CCCC.CCCCP(=O)(CCCC)CCCC.CCCCP(=O)(CCCC)CCCC.[Mn+2].[O-][Cl+3]([O-])([O-])O` was tested, and the T/C (dose: 50.0 mg/kg/injection, schedule: Q01DX009 (ip), vehicle: saline + Tween-80 + alcohol) was 101 % of control, the T/C [10] was 104 % of control and the T/C (dose: 100.0 mg/kg/injection, schedule: Q01DX009 (ip), vehicle: saline + Tween-80 + alcohol) was 116 % of control. The T/C [11] was 119 % of control and the T/C (dose: 200.0 mg/kg/injection, schedule: Q01DX009 (ip), vehicle: saline + Tween-80 + alcohol) was 122 % of control.
In the case of `Cc1cc(NS(=O)(=O)c2ccc(N=c3c4ccccc4n(-c4ccccc4)c4ccccc34)cc2)no1`, the T/C [1] is reported as 103 % of control, the T/C [2] is reported as 92 % of control and the T/C [3] is reported as 90 % of control.
For `CN(C)P(=O)(N(C)C)N1CCCCC1`, the T/C [10] was 97 % of control, the T/C [11] was 114 % of control and the T/C [12] was 100 % of control.
With `CC1(C)CCCc2conc21` the T/C [10] was 96 % of control, the T/C [11] was 101 % of control and the T/C [12] was 96 % of control.
In the case of `Cn1ncc2c(Nc3ccc(F)cc3)c3ccccc3nc21`, the T/C (dose: 60.0 mg/kg/injection, schedule: Q01DX005 (ip), vehicle: Klucel (hydroxypropylcellulose) (HPC)) is reported as 97 % of control, the T/C (dose: 120.0 mg/kg/injection, schedule: Q01DX005 (ip), vehicle: Klucel (hydroxypropylcellulose) (HPC)) is reported as 95 % of control and the T/C (dose: 240.0 mg/kg/injection, schedule: Q01DX005 (ip), vehicle: Klucel (hydroxypropylcellulose) (HPC)) is reported as 90 % of control.
